According to PubChem BioAssay (NCI):
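Tested at 5 concentrations; 48 h exposure; 96-well plates; endpoints linearly interpolated, else capped at highest concentration. GI50 marks 50% less growth. TGI denotes the concentration required for complete inhibition of growth.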

How the values were obtained:
Test in all cases: NCI-60 cell line screen, 48 h
NCI-H226 lung = test system: NCI-H226 lung
NCI-H23 lung = test system: NCI-H23 lung
NCI-H460 lung = test system: NCI-H460 lung
NCI-H522 lung = test system: NCI-H522 lung
NCI/ADR-RES ovarian = test system: NCI/ADR-RES ovarian
OVCAR-3 ovarian = test system: OVCAR-3 ovarian
OVCAR-4 ovarian = test system: OVCAR-4 ovarian
OVCAR-5 ovarian = test system: OVCAR-5 ovarian
OVCAR-8 ovarian = test system: OVCAR-8 ovarian
PC-3 prostate = test system: PC-3 prostate
RPMI-8226 leukemia = test system: RPMI-8226 leukemia
RXF 393 renal = test system: RXF 393 renal
SF-268 CNS = test system: SF-268 CNS
SF-295 CNS = test system: SF-295 CNS
SF-539 CNS = test system: SF-539 CNS
SK-MEL-2 melanoma = test system: SK-MEL-2 melanoma
SK-MEL-28 melanoma = test system: SK-MEL-28 melanoma
SK-MEL-5 melanoma = test system: SK-MEL-5 melanoma
SK-OV-3 ovarian = test system: SK-OV-3 ovarian
SN12C renal = test system: SN12C renal
SNB-19 CNS = test system: SNB-19 CNS
SNB-75 CNS = test system: SNB-75 CNS
SR leukemia = test system: SR leukemia
SW-620 colon = test system: SW-620 colon
T-47D breast = test system: T-47D breast
TK-10 renal = test system: TK-10 renal
U251 CNS = test system: U251 CNS
UACC-257 melanoma = test system: UACC-257 melanoma
UACC-62 melanoma = test system: UACC-62 melanoma
UO-31 renal = test system: UO-31 renal

Cc1ccc(-c2nc3ccc(C(=O)N=Nc4c(O)[nH]c5ccc(Cl)cc45)cc3[nH]2)cc1
TGI (NCI-H226 lung): > 100 µM
GI50 (NCI-H23 lung): 6.63 µM
TGI (NCI-H23 lung): 28.9 µM
GI50 (NCI-H460 lung): 8.67 µM
TGI (NCI-H460 lung): > 100 µM
GI50 (NCI-H522 lung): 4.3 µM
TGI (NCI-H522 lung): 21.3 µM
GI50 (NCI/ADR-RES ovarian): > 100 µM
TGI (NCI/ADR-RES ovarian): > 100 µM
GI50 (OVCAR-3 ovarian): 7.29 µM
TGI (OVCAR-3 ovarian): 74.4 µM
GI50 (OVCAR-4 ovarian): 15 µM
TGI (OVCAR-4 ovarian): 51.3 µM
GI50 (OVCAR-5 ovarian): 25.5 µM
TGI (OVCAR-5 ovarian): > 100 µM
GI50 (OVCAR-8 ovarian): > 100 µM
TGI (OVCAR-8 ovarian): > 100 µM
GI50 (PC-3 prostate): 13.4 µM
TGI (PC-3 prostate): 39.2 µM
GI50 (RPMI-8226 leukemia): 67.7 µM
TGI (RPMI-8226 leukemia): > 100 µM
GI50 (RXF 393 renal): > 100 µM
TGI (RXF 393 renal): > 100 µM
GI50 (SF-268 CNS): 24.2 µM
TGI (SF-268 CNS): > 100 µM
GI50 (SF-295 CNS): > 100 µM
TGI (SF-295 CNS): > 100 µM
GI50 (SF-539 CNS): > 100 µM
TGI (SF-539 CNS): > 100 µM
GI50 (SK-MEL-2 melanoma): > 100 µM
TGI (SK-MEL-2 melanoma): > 100 µM
GI50 (SK-MEL-28 melanoma): 36.1 µM
TGI (SK-MEL-28 melanoma): > 100 µM
GI50 (SK-MEL-5 melanoma): > 100 µM
TGI (SK-MEL-5 melanoma): > 100 µM
GI50 (SK-OV-3 ovarian): > 100 µM
TGI (SK-OV-3 ovarian): > 100 µM
GI50 (SN12C renal): 38.9 µM
TGI (SN12C renal): > 100 µM
GI50 (SNB-19 CNS): 30.1 µM
TGI (SNB-19 CNS): > 100 µM
GI50 (SNB-75 CNS): 66.5 µM
TGI (SNB-75 CNS): > 100 µM
GI50 (SR leukemia): > 100 µM
TGI (SR leukemia): > 100 µM
GI50 (SW-620 colon): 3.3 µM
TGI (SW-620 colon): 26 µM
GI50 (T-47D breast): 44.5 µM
TGI (T-47D breast): > 100 µM
GI50 (TK-10 renal): > 100 µM
TGI (TK-10 renal): > 100 µM
GI50 (U251 CNS): 25.3 µM
TGI (U251 CNS): > 100 µM
GI50 (UACC-257 melanoma): > 100 µM
TGI (UACC-257 melanoma): > 100 µM
GI50 (UACC-62 melanoma): > 100 µM
TGI (UACC-62 melanoma): > 100 µM
GI50 (UO-31 renal): > 100 µM
TGI (UO-31 renal): > 100 µM
